In PubChem BioAssay AID330 (DTP/NCI, 2004):
Values joined by “and” are separate entries in the source; they are usually repeats but may differ in a detail not shown here. Equal values may be shown once. Inconclusive results and toxic doses are left out. Peptide text beside a SMILES is read from it. * marks the point of attachment. Cbz = O=C(OCc1ccccc1)*; OtBu = CC(C)(C)O*

Tested on: P388 leukemia ip, CD2F1 mice, survival T/C
Test: NCI In Vivo Anticancer Drug Screen. Data for tumor model P388 Leukemia (intraperitoneal) in CD2F1 (CDF1) mice
Conditions: endpoint: median survival time, higher = longer survival
How it was run: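 Mice carrying the transplanted tumor received test compound or vehicle. Survival was recorded in each group, and the value is the treated-group measurement divided by that of the vehicle-treated control group.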

[1] = dose: 12.5 mg/kg/injection, schedule: Q01DX009 (ip), vehicle: saline with Tween-80
[2] = dose: 25.0 mg/kg/injection, schedule: Q01DX009 (ip), vehicle: saline
[3] = dose: 60.0 mg/kg/injection, schedule: Q01DX005 (ip), vehicle: saline with Tween-80
[4] = dose: 120.0 mg/kg/injection, schedule: Q01DX005 (ip), vehicle: saline with Tween-80
[5] = dose: 100.0 mg/kg/injection, schedule: Q04DX003 (ip), vehicle: saline with Tween-80
[6] = dose: 200.0 mg/kg/injection, schedule: Q04DX003 (ip), vehicle: saline with Tween-80
[7] = dose: 50.0 mg/kg/injection, schedule: Q01DX005 (ip), vehicle: saline with Tween-80
[8] = dose: 100.0 mg/kg/injection, schedule: Q01DX005 (ip), vehicle: saline with Tween-80
[9] = dose: 200.0 mg/kg/injection, schedule: Q01DX005 (ip), vehicle: saline with Tween-80
[10] = dose: 50.0 mg/kg/injection, schedule: Q01DX009 (ip), vehicle: saline with Tween-80
[11] = dose: 100.0 mg/kg/injection, schedule: Q01DX009 (ip), vehicle: saline with Tween-80
[12] = dose: 200.0 mg/kg/injection, schedule: Q01DX009 (ip), vehicle: saline with Tween-80
[13] = dose: 400.0 mg/kg/injection, schedule: Q04DX003 (ip), vehicle: saline with Tween-80
[14] = dose: 50.0 mg/kg/injection, schedule: Q01DX009 (ip), vehicle: saline
[15] = dose: 100.0 mg/kg/injection, schedule: Q01DX009 (ip), vehicle: saline
[16] = dose: 50.0 mg/kg/injection, schedule: Q01DX005 (ip), vehicle: Klucel (hydroxypropylcellulose) (HPC)
[17] = dose: 100.0 mg/kg/injection, schedule: Q01DX005 (ip), vehicle: Klucel (hydroxypropylcellulose) (HPC)
[18] = dose: 200.0 mg/kg/injection, schedule: Q01DX005 (ip), vehicle: Klucel (hydroxypropylcellulose) (HPC)
[19] = dose: 60.0 mg/kg/injection, schedule: Q01DX005 (ip), vehicle: Klucel (hydroxypropylcellulose) (HPC)
[20] = dose: 120.0 mg/kg/injection, schedule: Q01DX005 (ip), vehicle: Klucel (hydroxypropylcellulose) (HPC)
[21] = dose: 240.0 mg/kg/injection, schedule: Q01DX005 (ip), vehicle: Klucel (hydroxypropylcellulose) (HPC)
[22] = dose: 200.0 mg/kg/injection, schedule: Q01DX009 (ip), vehicle: saline
[23] = dose: 100.0 mg/kg/injection, schedule: Q04DX003 (ip), vehicle: saline

In the case of `C=CC(=NC(C)(C)C)Nc1c(Cl)cccc1Cl`, the T/C (dose: 0.79 mg/kg/injection, schedule: Q01DX009 (ip), vehicle: saline) was 100 % of control, the T/C (dose: 1.56 mg/kg/injection, schedule: Q01DX009 (ip), vehicle: saline) was 96 % of control and the T/C (dose: 3.12 mg/kg/injection, schedule: Q01DX009 (ip), vehicle: saline) was 108 % of control. The T/C (dose: 6.25 mg/kg/injection, schedule: Q01DX009 (ip), vehicle: saline with Tween-80) was 114 % of control, the T/C [1] was 119 % of control and the T/C (dose: 12.5 mg/kg/injection, schedule: Q01DX009 (ip), vehicle: saline) was 109 % of control. The T/C [2] was 116 % of control.
With `O=C(Nc1ccc(CCO)cc1)Nc1cc(C(F)(F)F)ccc1Cl` the T/C [3] was 89 % of control and the T/C [4] was 90 % of control.
For `Cc1noc(-c2ccccc2)c1N=Nc1ccccc1`, the T/C (dose: 100.0 mg/kg/injection, schedule: Q01DX001 (ip), vehicle: Klucel (hydroxypropylcellulose) (HPC)) was 99 % of control, the T/C (dose: 200.0 mg/kg/injection, schedule: Q01DX001 (ip), vehicle: Klucel (hydroxypropylcellulose) (HPC)) was 105 % of control and the T/C (dose: 400.0 mg/kg/injection, schedule: Q01DX001 (ip), vehicle: Klucel (hydroxypropylcellulose) (HPC)) was 93 % of control.
`Cn1ncc2c(NCc3ccccc3)ncnc21` was tested, and the T/C (dose: 6.25 mg/kg/injection, schedule: Q01DX009 (ip), vehicle: saline sonified) was 95 % of control, the T/C (dose: 12.5 mg/kg/injection, schedule: Q01DX009 (ip), vehicle: saline sonified) was 95 % of control and the T/C (dose: 25.0 mg/kg/injection, schedule: Q01DX009 (ip), vehicle: saline sonified) was 109 % of control. For the same compound, the T/C (dose: 50.0 mg/kg/injection, schedule: Q04DX003 (ip), vehicle: saline with Tween-80) was 109 % of control, the T/C [5] was 104 % of control and the T/C [6] was 95 % of control.
With `COc1ccccc1C1OC2=C(Nc3ccc(Cl)cc3N2)C1=O` (configuration not stated) the T/C (dose: 7.5 mg/kg/injection, schedule: Q01DX005 (ip), vehicle: Klucel (hydroxypropylcellulose) (HPC)) was 100 % of control, the T/C (dose: 15.0 mg/kg/injection, schedule: Q01DX005 (ip), vehicle: Klucel (hydroxypropylcellulose) (HPC)) was 93 % of control and the T/C (dose: 30.0 mg/kg/injection, schedule: Q01DX005 (ip), vehicle: Klucel (hydroxypropylcellulose) (HPC)) was 87 % of control.
With `COc1ccc2c(ccc3c(=O)c4c([nH]c32)CCC4)n1` the T/C (dose: 12.5 mg/kg/injection, schedule: Q04DX002 (ip), vehicle: saline with Tween-80) was 111 % of control, the T/C (dose: 25.0 mg/kg/injection, schedule: Q04DX002 (ip), vehicle: saline with Tween-80) was 114 % of control and the T/C (dose: 50.0 mg/kg/injection, schedule: Q04DX002 (ip), vehicle: saline with Tween-80) was 95 % of control.
In the case of `COC(=O)/C=C\C1(CC(C)C)N=C(c2ccccc2)OC1=O` (configuration not stated), the T/C [7] was 104 % of control, the T/C [8] was 95 % of control and the T/C [9] was 104 % of control.
`CC12C=C3C4(CCCC3(O1)c1ccccc12)OCCO4` (configuration not stated) was tested, and the T/C [10] was 96 % of control, the T/C [11] was 102 % of control and the T/C [12] was 99 % of control.
`Clc1ccc(N=NN2CCOC2)cc1` was tested, and the T/C [3] was 115 % of control and the T/C [4] was 109 % of control.
`C/C=C(\C)C(=O)N/N=C\c1ccc(O)cc1O` was tested, and the T/C [10] was 104 % of control, the T/C [11] was 96 % of control and the T/C [12] was 91 % of control.
With `CC(NC(=O)C(Cc1ccc(O)cc1)NC(=O)C(C)NC(=O)OCc1ccccc1)C(=O)O` (stereo not drawn) (Cbz-Ala-Tyr-Ala-OH; configuration not given here) the T/C [7] was 100 % of control, the T/C [8] was 104 % of control and the T/C [9] was 99 % of control.
In the case of `COC(=O)C(CCC(=O)OC(C)(C)C)NC(=O)C(NC(=O)OCc1ccccc1)C(C)C` (stereo not drawn) (Cbz-Val-Glu(OtBu)-OMe; configuration not given here), the T/C [5] was 110 % of control, the T/C [6] was 120 % of control and the T/C [13] was 90 % of control.
In the case of `N#C/C(=C\c1ccc([N+](=O)[O-])o1)[N+](=O)[O-]`, the T/C [14] was 103 % of control and the T/C [15] was 93 % of control.
In the case of `COc1cc2c(cc1O)C(CSC)Cc1cc(OC)c(OC)cc1N(C)CCC2` (configuration not stated), the T/C [5] was 93 % of control, the T/C [6] was 87 % of control and the T/C [13] was 100 % of control.
`Cc1cnc(NCCCNc2ncc(C)c(-c3ccccc3O)n2)nc1-c1ccccc1O` was tested, and the T/C [16] was 88 % of control, the T/C [17] was 86 % of control and the T/C [18] was 92 % of control.
With `O=C(/C=C/c1ccc(OCc2ccccc2)cc1)c1c(F)cccc1F` the T/C [10] was 99 % of control, the T/C [11] was 98 % of control and the T/C [12] was 100 % of control.
For `CCCCN1COC2CCCCC21` (configuration not stated), the T/C (dose: 25.0 mg/kg/injection, schedule: Q01DX005 (ip), vehicle: saline) was 113 % of control and the T/C (dose: 100.0 mg/kg/injection, schedule: Q01DX005 (ip), vehicle: saline) was 121 % of control.
For `NC(CSC(c1ccccc1)(c1ccccc1)c1ccc(CO)cc1)C(=O)O` (configuration not stated), the T/C [1] was 118 % of control.
With `[CH3][Sn]([CH3])([Cl])[Cl].c1ccc(-c2nnc(-c3ccccn3)nc2-c2ccccc2)cc1` the T/C [19] was 95 % of control, the T/C [20] was 94 % of control and the T/C [21] was 89 % of control.
`O=c1c(O)c(O)c1=O.[NH2-].[NH2-].[NH2-].[NH2-].[NH2-].[Ru+5]` was tested, and the T/C (dose: 10.56 mg/kg/injection, schedule: Q04DX002 (ip), vehicle: suspension in saline) was 121 % of control.
In the case of `CCC1CC2CN(CCc3c([nH]c4ccccc34)C(C(=O)OC)(c3cc4c(cc3OC)N(C)C3C(O)(C(=O)OC)C(OC(C)=O)C5(CC)CCCN6CCC43C65)C2)C1` (configuration not stated), the T/C (dose: 1.0 mg/kg/injection, schedule: Q01DX001 (ip), vehicle: water) was 124 % of control, the T/C (dose: 2.0 mg/kg/injection, schedule: Q01DX001 (ip), vehicle: water) was 122 % of control and the T/C (dose: 16.0 mg/kg/injection, schedule: Q01DX001 (ip), vehicle: water) was 153 % of control and 154 % of control. For the same compound, the T/C (dose: 32.0 mg/kg/injection, schedule: Q01DX001 (ip), vehicle: water) was 163 % of control.
`Cc1ccc(C(=O)Nc2ccccn2)cc1` was tested, and the T/C (dose: 50.0 mg/kg/injection, schedule: Q01DX009 (ip), vehicle: Klucel (hydroxypropylcellulose) (HPC)) was 100 % of control, the T/C (dose: 100.0 mg/kg/injection, schedule: Q01DX009 (ip), vehicle: Klucel (hydroxypropylcellulose) (HPC)) was 93 % of control and the T/C (dose: 200.0 mg/kg/injection, schedule: Q01DX009 (ip), vehicle: Klucel (hydroxypropylcellulose) (HPC)) was 100 % of control.
`CC(=O)Nc1ccc2c(c1)C(N)c1ccccc1-2` (configuration not stated) was tested, and the T/C [5] was 104 % of control and the T/C [6] was 118 % of control.
With `CC(C)(C)c1cc(C(=O)O)c(Br)c(C(=O)O)c1` the T/C [14] was 97 % of control, the T/C [15] was 102 % of control and the T/C [22] was 100 % of control.
In the case of `C[Si]1(C)CCCCC1`, the T/C [14] was 102 % of control, the T/C [15] was 95 % of control and the T/C [22] was 101 % of control. The T/C (dose: 400.0 mg/kg/injection, schedule: Q01DX009 (ip), vehicle: saline) was 102 % of control.
For `CC(O)(C#Cc1ccccc1)c1nc2ccccc2s1` (configuration not stated), the T/C [19] was 101 % of control, the T/C [20] was 101 % of control and the T/C [21] was 100 % of control.
For `CC1CN1P(=O)(N1CCCC1)N1CC1C` (configuration not stated), the T/C (dose: 4.4 mg/kg/injection, schedule: Q01DX009 (ip), vehicle: saline) was 109 % of control, the T/C (dose: 6.6 mg/kg/injection, schedule: Q01DX009 (ip), vehicle: saline) was 120 % of control and the T/C (dose: 12.5 mg/kg/injection, schedule: Q04DX003 (ip), vehicle: saline) was 100 % of control. For the same compound, the T/C [2] was 150 % of control, the T/C (dose: 25.0 mg/kg/injection, schedule: Q04DX003 (ip), vehicle: saline) was 108 % of control and the T/C (dose: 66.0 mg/kg/injection, schedule: Q04DX003 (ip), vehicle: saline) was 166 % of control. The T/C [15] was 86 % of control and the T/C [23] was 175 % of control.
In the case of `CCCOC(=O)/C=C/C(=O)N1CC(C)N(C(=O)/C=C/C(=O)OCCC)CC1C` (configuration not stated), the T/C [16] was 109 % of control, the T/C [17] was 98 % of control and the T/C [18] was 98 % of control.
With `CC(/C=N\Nc1ccc(C(=O)O)cc1)=N/N=C(N)N` the T/C [23] was 99 % of control, the T/C (dose: 200.0 mg/kg/injection, schedule: Q04DX003 (ip), vehicle: saline) was 98 % of control and the T/C (dose: 400.0 mg/kg/injection, schedule: Q04DX003 (ip), vehicle: saline) was 100 % of control.
